Results: patent publication US7238725B2, “Tricyclic compounds useful for the treatment of inflammatory and allergic disorders: process for their preparation and pharmaceutical compositions containing them” (Glenmark Pharmaceuticals Ltd., priority 2002, dated 2007)
pIC50: −log10 of the molar value.

What was measured:
[1] = target: PDE4 enzyme; assay: Inhibition of Phosphodiesterase Enzymes (PDE4), [3H]cAMP hydrolysis; format: biochemical; conditions: PDE4 enzyme, 1 μM cAMP and 3H cAMP, 34° C.; read-out: IC50
Procedure: Inhibition of Phosphodiesterase Enzymes (PDE4)
In this assay, PDE4 enzyme converts [^3H] cAMP to the corresponding [^3H] 5′-AMP in proportion to the amount of PDE4 present The [^3H] 5′-AMP then was quantitatively converted to free [^3H] adenosine and phosphate by the action of snake venom 5′-nucleotidase.
The assay was performed with modification of the method of Thompson and Appleman (Biochemistry; 1971; 10; 311-316) and Schwartz and Passoneau (Proc. Natl. Acad. Sci. U.S.A. 1974; 71; 3844-3848), both references incorporated herein by reference in their entirety, at 34° C. In a 200 ul total reaction mixture, the reaction mixture contained 12.5 mM of Tris, 5 mM MgCl2, 1 μM cAMP (cold) and ^3H cAMP (0.1 uCi), (Amersham). […] Drug samples were then added in the reaction mixture (25 μl/tube). The assay was initiated by addition of enzyme mix (75 μl) and the mixture was incubated for 20 minutes at 34° C. The reaction was stopped by boiling the tubes for 2 mins at 100° C. in a water bath. After cooling on ice for 5 minutes and addition of 50 ug/reaction of 5′-nucleotidase snake venom from Crotalus atrox incubation was carried out again for 20 min. at 34° C. The unreacted substrate was separated from (^3H) Adenosine by addition of Dowex AG 1-X8 (Biorad Lab), (400 ul) which was prequilibrated (1:1:1) in water and ethanol. Reaction mixture was then thoroughly mixed, placed on ice for 15 minutes, vortexed and centrifuged at 14,000 r.p.m. for 2 mins. After centrifugation, a sample of the supernatant was taken and added in 24 well optiplates containing Scintillant (1 ml) and mixed well. The samples in the plates were then determined for radioactivity in a Top Counter and the PDE4 activity was estimated. PDE4 enzyme was present in quantities that yield <30% total hydrolysis of substrate (linear assay conditions).
Results were expressed as percent inhibition (IC50) in nM concentrations. The IC50 values were determined from the concentration curves by nonlinear regression analysis.
The IC50 value for the compound examined was determined from concentration-response curves in which varying range of concentrations were considered as shown in table 1

COc1ccc(C(=O)Nc2ccncc2)c2c1oc1ccccc12 [Example 3, N-(pyrid-4-yl)-4-methoxy dibenzo[b,d]furan-1-carboxamide]
pIC50 [1]: 8.06

O=C(Nc1cc[n+]([O-])cc1)c1ccc(OC(F)F)c2oc3ccc(C(F)(F)F)cc3c12 [Example 15, N-(pyrid-4-yl)-4-difluoromethoxy-8-trifluoromethyl dibenzo[b,d]furan-1-carboxamide-N1-oxide]
pIC50 [1]: 7.17

O=C(Nc1cccnc1)c1ccc(OC(F)F)c2oc3ccc(C(F)(F)F)cc3c12 [Example 16, N-(pyrid-3-yl)-4-difluoromethoxy-8-trifluoromethyl dibenzo[b,d]furan-1-carboxamide]
melting point: 235 to 236 °C

O=C(Nc1ccccn1)c1ccc(OC(F)F)c2oc3ccc(C(F)(F)F)cc3c12 [Example 18, N-(pyrid-2-yl)-4-difluoromethoxy-8-trifluoromethyl dibenzo[b,d]furan-1-carboxamide]
melting point: 169 to 170 °C

O=C(Nc1ccncc1)c1ccc(OC(F)F)c2oc3ccccc3c12 [Example 20, N-(pyrid-4-yl)-4-difluoromethoxy dibenzo[b,d]furan-1-carboxamide]
pIC50 [1]: 7.80

O=C(Nc1cc[n+]([O-])cc1)c1ccc(OC(F)F)c2oc3ccccc3c12 [Example 21, N-(pyrid-4-yl)-4-difluoromethoxy dibenzo[b,d]furan-1-carboxamide-N1-oxide]
pIC50 [1]: 7.65

O=C(Nc1cccnc1)c1ccc(OC(F)F)c2oc3ccccc3c12 [Example 22, N-(pyrid-3-yl)-4-difluoromethoxy dibenzo[b,d]furan-1-carboxamide]
pIC50 [1]: 6.98

O=C(Nc1ccc[n+]([O-])c1)c1ccc(OC(F)F)c2oc3ccccc3c12 [Example 23, N-(pyrid-3-yl)-4-difluoromethoxy dibenzo[b,d]furan-1-carboxamide-N1-oxide]
pIC50 [1]: 6.83

O=C(Nc1ccc(Cl)cn1)c1ccc(OC(F)F)c2oc3ccccc3c12 [Example 24, N-(5-chloropyrid-2-yl)-4-difluoromethoxy dibenzo[b,d]furan-1-carboxamide]
melting point: 155 to 157 °C

O=C(Nc1ccncc1)c1ccc(OCC2CC2)c2oc3ccccc3c12 [Example 27, N-(pyrid-4-yl)-4-cyclopropylmethoxy dibenzo[b,d]furan-1-carboxamide]
pIC50 [1]: 7.13

O=C(Nc1cccnc1)c1ccc(OCC2CC2)c2oc3ccccc3c12 [Example 29, N-(pyrid-3-yl)-4-cyclopropylmethoxy dibenzo[b,d]furan-1-carboxamide]
pIC50 [1]: 6.45

O=C(Nc1c(Cl)cncc1Cl)c1ccc(OCc2ccccc2)c2oc3ccccc3c12 [Example 37, N-(3,5-dichloropyrid-4-yl)-4-benzyloxy dibenzo[b,d]furan-1-carboxamide]
melting point: 269 to 270 °C (dec.)

COc1ccc(C(=O)Nc2ccncc2)c2c1oc1ccc([N+](=O)[O-])cc12 [Example 39, N-(pyrid-4-yl)-4-methoxy-8-nitro dibenzo[b,d]furan-1-carboxamide]
pIC50 [1]: 7.50

COc1ccc(C(=O)Nc2ccncc2)c2c1oc1ccc(Br)cc12 [Example 43, N-(pyrid-4-yl)-4-methoxy-8-bromo-dibenzo[b,d]furan-1-carboxamide]
pIC50 [1]: 7.21

COc1ccc(C(=O)Nc2ccncc2)c2c1oc1ccc(I)cc12 [Example 46, N-(pyrid-4-yl)-4-methoxy-8-iodo-dibenzo[b,d]furan-1-carboxamide]
pIC50 [1]: 7.43

COc1c(C(=O)Nc2c(Cl)cncc2Cl)ccc2c1oc1ccccc12 [Example 52, N-(3,5-dichloropyrid-4-yl)-4-methoxy dibenzo[b,d]furan-3-carboxamide]
melting point: 176 °C (dec.)

COc1ccc(S(=O)(=O)Nc2c(Cl)cncc2Cl)c2c1oc1ccccc12 [Example 54, N-(3,5-dichloropyrid-4-yl)-4-methoxy dibenzo[b,d]furan-1-sulfonamide]
melting point: 242 to 244 °C

CCOc1ccc(C(=O)Nc2c(Cl)cncc2Cl)c2c1oc1ccccc12 [Example 60, 3,5-Dichloro-4-(4-ethoxydibenzo[b,d]furan-1-ylcarboxamido)pyridine]
pIC50 [1]: 7.06

CCOc1ccc(C(=O)Nc2c(Cl)c[n+]([O-])cc2Cl)c2c1oc1ccccc12 [Example 68, 3,5-Dichloro-4-(4-ethoxydibenzo[b,d]furan-1-ylcarboxamido)pyridine-N-oxide]
pIC50 [1]: 7.24

COc1ccc(C(=O)Nc2ccncc2)c2c1[nH]c1ccccc12 [Example 79, N4-(4-pyridyl)-1-methoxy-9H-4-carbazole carboxamide]
pIC50 [1]: 6.89

COc1ccc(C(=O)Nc2c(Cl)cncc2Cl)c2c3cc(Cl)ccc3n(Cc3ccccc3)c12 [Example 82, N4-(3,5-dichloro-4-pyridyl)-9-benzyl-6-chloro-1-methoxy-9H-4-carbazole carboxamide]
pIC50 [1]: 7.71

COc1ccc(C(=O)Nc2c(Cl)cncc2Cl)c2c3cc(Cl)ccc3n(CC3CCCCC3)c12 [Example 83, N4-(3,5-dichloro-4-pyridyl)-6-chloro-9-cyclohexylmethyl-1-methoxy-9H-4-carbazole carboxamide]
pIC50 [1]: 8.28

COc1ccc(C(=O)Nc2c(Cl)cncc2Cl)c2c3cc(Cl)ccc3n(Cc3ccc(F)cc3)c12 [Example 84, N4-(3,5-dichloro-4-pyridyl)-6-chloro-9-(4-fluorobenzyl)-1-methoxy-9H-4-carbazole carboxamide]
pIC50 [1]: 7.84

COc1ccc(Cn2c3ccc(Cl)cc3c3c(C(=O)Nc4c(Cl)cncc4Cl)ccc(OC)c32)cc1 [Example 85, N4-(3,5-dichloro-4-pyridyl)-6-chloro-9-(4-methoxybenzyl)-1-methoxy-9H-4-carbazolecarboxamide]
pIC50 [1]: 8.09

COc1ccc(C(=O)Nc2c(Cl)cncc2Cl)c2c3ccccc3n(Cc3ccc(F)cc3)c12 [Example 86, N4-(3,5-dichloro-4-pyridyl)-9-(4-fluorobenzyl)-1-methoxy-9H-4-carbazole carboxamide]
pIC50 [1]: 7.14

COc1ccc(C(=O)Nc2ccncc2)c2c3ccccc3n(Cc3ccc(F)cc3)c12 [Example 87, N4-(4-pyridyl)-9-(4-fluorobenzyl)-1-methoxy-9H-4-carbazole carboxamide]
pIC50 [1]: 6.41

COc1ccc(C(=O)Nc2c(Cl)cncc2Cl)c2c3ccccc3n(Cc3ccccc3)c12 [Example 88, N4-(3,5-dichloro-4-pyridyl)-9-benzyl-1-methoxy-9H-4-carbazolecarboxamide]
pIC50 [1]: 6.89

COc1ccc(C(=O)Nc2ccncc2)c2c3cc(Cl)ccc3n(Cc3ccc(F)cc3)c12 [Example 93, N4-(4-pyridyl)-6-chloro-9-(4-fluorobenzyl)-1-methoxy-9H -4-carbazolecarboxamide]
pIC50 [1]: 6.79

COc1ccc(C(=O)Nc2c(Cl)cncc2Cl)c2c3cccc(Cl)c3n(CC3CCCCC3)c12 [Example 94, N4-(3,5dichloro-4-pyridyl)-8-chloro-9-cyclohexylmethyl-1-methoxy-9H-4-carbazole carboxamide]
pIC50 [1]: 6.55

COc1ccc(C(=O)Nc2c(Cl)cncc2Cl)c2c3cccc(Cl)c3n(Cc3ccc(F)cc3)c12 [Example 95, N4-(3,5dichloro-4pyridyl)-8-chloro-9-(4-Fluorobenzyl)-1-methoxy-9H-4-carbazole carboxamide]
pIC50 [1]: 7.10

COc1ccc(C(=O)Nc2c(Cl)c[n+]([O-])cc2Cl)c2c3cc(Cl)ccc3n(Cc3ccc(F)cc3)c12 [Example 97, N4-(3,5-dichloro-4-pyridyl-N-oxide)-6-chloro-9-(4-fluorobenzyl)-1-methoxy-9H-4-carbazolecarboxamide]
pIC50 [1]: 7.39

COc1ccc(Cn2c3ccc(Cl)cc3c3c(C(=O)Nc4c(Cl)c[n+]([O-])cc4Cl)ccc(OC)c32)cc1 [Example 98, N4-(3,5-dichloro-4-pyridyl-N-oxide)-6-chloro-9-(4-methoxybenzyl)-1-methoxy-9H-4-carba-zolecarboxamide]
pIC50 [1]: 7.40

COc1ccc(C(=O)Nc2c(Cl)c[n+]([O-])cc2Cl)c2c3cc(Cl)ccc3n(CC3CCCCC3)c12 [Example 99, N4-(3,5-dichloro-4-pyridyl-N-oxide)-6-chloro-9-cyclohexylmethyl-1-methoxy-9-H-4-carbazolecarboxamide]
pIC50 [1]: 7.52

COc1ccc(NS(=O)(=O)c2ccc(OC)c3sc4ccc(S(=O)(=O)N(C)C)cc4c23)cc1 [Example 115, N1-(4-methoxyphenyl)-8,N8-dimethyl-4-methoxydibenzo[b,d]thiophen-8,1-disulfonamide]
pIC50 [1]: 7.43

O=C(Nc1c(Cl)cncc1Cl)c1ccc(OC(F)F)c2oc3ccc(N4CCCC4=O)cc3c12 [Example 121, N-(3,5-dichloropyrid-4-yl)-4-difluoromethoxy-8-(pyrrolidine-2-one-1-yl)-dibenzo[b,d]furan-1-carboxamide]
pIC50 [1]: 7.67
